Several values for one entry are separate records, joined by “and”; a condition that tells them apart may be missing. Equal values may be shown once.
What was measured:
[1] = tested on: GK rats; test: GK rat acute oral glucose tolerance test (OGTT) with insulin co-measurement; format: in vivo; set-up: Blood Glucose AUC / Insulin AUC: unit not given here
Description: On the day of the study, male GK rats were bled via tail snip, and blood glucose was measured via glucometer (OneTouch Ultra, Lifescan Inc., Milpitas, CA). Fed glucose was measured at 8 A.M. (lights on 7 A.M.– 7 P.M.) and used to select and sort animals into treatment groups (n = 8/ GK group, plus n = 6/WKY control group). Animals were then placed into clean cages, and food was removed. […] Dosages from 0.3–10 mg MK-2305 / kg body weight were tested. Both the GK and WKY control groups received vehicle (0.5% methylcellulose). Blood glucose was measured again (time = 0) immediately prior to a dextrose challenge of 1 g/kg at 10 ml/kg dose volume (Dextrose, Hospira Inc., Lake Forrest IL) and then again at 20, 40, 60, and 120 min after the glucose challenge. Insulin was co-measured to test the glucose-dependent secretory response to MK-2305 delivered acutely PO. […] […] Values of percent inhibition vs. vehicle for each treatment were generated from the AUC data. Maximally efficacious dose (MED) was defined as the minimum dosage generating a maximum inhibition of glucose excursion achieved with this compound in the OGTT assay.
Plasma was analyzed for triglycerides, NEFA, and HbA1C using a P Modular Roche Clinical Chemistry analyzer. Liver triglycerides were extracted as described by Bligh and Dyer, and were measured using the Infinity triglyceride assay kit (Thermo Scientific, Rockford, IL). Plasma insulin levels were measured via EIA (Mesoscale Discovery ELISA Kit, Gaithersburg MD).

[2] = molecular target: T1, rat GPR40 (FFAR1) (Rattus norvegicus, UniProt Q8K3T4); test: IP1 functional assay, CHO cells stably expressing rat GPR40; format: cell-based; conditions: for Receptor Activation (%): representative curve Fig 1B
T1 construct: expressed in transfected cells
T1 sequence (Q8K3T4 whole entry): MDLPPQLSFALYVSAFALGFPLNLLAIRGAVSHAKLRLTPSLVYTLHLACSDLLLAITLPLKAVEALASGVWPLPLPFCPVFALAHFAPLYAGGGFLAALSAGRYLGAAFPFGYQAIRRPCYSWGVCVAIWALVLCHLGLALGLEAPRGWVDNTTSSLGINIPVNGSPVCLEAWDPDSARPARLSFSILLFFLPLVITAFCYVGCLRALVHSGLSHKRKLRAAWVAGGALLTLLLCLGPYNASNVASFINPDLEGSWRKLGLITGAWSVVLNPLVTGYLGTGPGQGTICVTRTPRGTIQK
Description: CHO Jump-IN cells stably expressing rat GPR40 or HEK293 Jump-IN cells stably expressing rat GPR120 were cultured in DMEM media supplemented with 10% dialyzed FBS, non-essential amino acids, penicillin/streptomycin, 10 μg/ml Blasticidin S HCL and 200 or 100 μg/ml Hygromycin B, respectively (Life Technologies). Cell stocks were maintained and grown in a sub-confluent state using standard cell culture procedures. The day before the experiment, the cells were harvested with non-enzymatic cell dissociation buffer and re-suspended in DMEM supplemented as described above at 0.15 million cells per ml. […] The seeded plates were incubated overnight at 37°C in a humidified environment.
On the day of the experiment, the growth media was removed from the assay plate by centrifugation using a BlueCatBio BlueWasher, protocol #21 “Light Dry” and 10 μl of IP1 stimulation buffer (prepared according to the Cisbio IP-one Tb HTRF kit) is added to each well. Test compounds were dissolved and serially diluted in DMSO as 200X the final assay concentration and 50 nl of the compound dilution was acoustically added to each well of the assay plates. The plates were then incubated for 60 minutes at room temperature and 10 μl of detection buffer (prepared according to the IP-one Tb HTRF kit) is added to each well of the assay plate. The plates were then incubated for one additional hour at room temperature. […] For each assay, a standard curve plate in which IP1 is titrated is also included. […] The % activation is then plotted versus the concentration of test compound and the dose response curve fitted to a standard 4-paramater non-linear regression model using a custom in-house developed software package. Maximal % activation and EC50 are then determined for each test compound.

[3] = tested on: GK rats; test: GK rat chronic efficacy, compound in feed for 20 days; format: in vivo; conditions: Day 7, ~6 hrs after food removal; 10mpk; chronic study; individual animals; 10 mg/kg
[4] = tested on: GPR40 receptor; conditions: cited from earlier work
[5] = 10 mpk PO, 60 min after glucose challenge, individual GK rats

O=C1NC(=O)C(C2CCOc3cc(Oc4ccc(C(F)(F)F)cc4Cl)ccc32)S1 (stereo not drawn) [MK-2305]
Insulin (plasma) ([1]; 3 mpk PO, time 0 min (before glucose challenge), individual GK rats): 2.038 ng/mL and 2.813 ng/mL and 2.511 ng/mL and 1.822 ng/mL and 2.53 ng/mL and 1.993 ng/mL and 3.94 ng/mL and 2.292 ng/mL | Insulin (plasma) ([1]; 3 mpk PO, time -70 min (before dosing), individual GK rats): 1.014 ng/mL and 1.059 ng/mL and 0.86 ng/mL and 1.354 ng/mL and 1.26 ng/mL and 1.009 ng/mL and 0.738 ng/mL and 0.715 ng/mL | Insulin (plasma) ([1]; 10 mpk PO, 10 min after glucose challenge, individual GK rats): 2.601 ng/mL and 2.364 ng/mL and 2.726 ng/mL and 5.09 ng/mL | Blood Glucose ([1]; 10 mpk PO, 40 min after glucose challenge, individual GK rats): 175 mg/dL and 159 mg/dL and 143 mg/dL and 141 mg/dL and 190 mg/dL and 140 mg/dL and 169 mg/dL and 138 mg/dL | Blood Glucose [1, 5]: 112 mg/dL and 121 mg/dL and 110 mg/dL and 96 mg/dL and 134 mg/dL and 125 mg/dL and 136 mg/dL and 122 mg/dL | Insulin (plasma) [1, 5]: 3.212 ng/mL and 2.293 ng/mL and 2.244 ng/mL and 2.355 ng/mL and 1.203 ng/mL and 2.734 ng/mL and 1.35 ng/mL and 1.965 ng/mL | Blood Glucose ([1]; 10 mpk PO, 120 min after glucose challenge, individual GK rats): 95 mg/dL and 96 mg/dL and 92 mg/dL and 103 mg/dL and 108 mg/dL and 106 mg/dL and 90 mg/dL and 86 mg/dL | Insulin AUC ([1]; 10 mpk PO, OGTT t = 0 to 60 min, individual GK rats): 214.776 and 171.523 and 203.357 and 192.34 and 162.197 and 187.807 and 233.894 and 115.015 | Blood Glucose AUC ([1]; 10 mpk PO, OGTT t = 0 to 120 min, individual GK rats): 15625 and 16245 and 14660 and 15615 and 15760 and 13890 and 14070 and 17780 | Insulin (plasma) ([1]; 10 mpk PO, time 0 min (before glucose challenge), individual GK rats): 4.429 ng/mL and 3.472 ng/mL and 2.279 ng/mL and 3.372 ng/mL and 2.041 ng/mL and 3.234 ng/mL and 3.429 ng/mL and 2.217 ng/mL | Insulin (plasma) ([1]; 10 mpk PO, time -70 min (before dosing), individual GK rats): 1.186 ng/mL and 1.004 ng/mL and 1.491 ng/mL and 1.304 ng/mL and 0.764 ng/mL and 1.19 ng/mL and 0.996 ng/mL and 0.784 ng/mL | Blood Glucose ([1]; 10 mpk PO, time AM (fed, before dosing), individual GK rats): 188 mg/dL and 169 mg/dL and 124 mg/dL and 160 mg/dL | MED (maximally efficacious dose) in OGTT ([1]; GK rats, PO): 3 mg/kg | selectivity for activation of rat GPR40 vs. GPR120, GPR41, GPR43, PPARα, PPARδ, PPARγ [2]: highly selective | Receptor Activation (%) ([2]; Concentration 2.00E-06 M): 154% | Receptor Activation (%) ([2]; Concentration 2.00E-07 M): 169% | Receptor Activation (%) ([2]; Concentration 2.00E-08 M): 136% | Receptor Activation (%) ([2]; Concentration 2.00E-09 M): 35% | Receptor Activation (%) ([2]; Concentration 2.00E-10 M): 5.69% | Receptor Activation (%) ([2]; Concentration 6.00E-07 M): 163% | Receptor Activation (%) ([2]; Concentration 6.00E-08 M): 133% | Receptor Activation (%) ([2]; Concentration 6.00E-09 M): 74% | Receptor Activation (%) ([2]; Concentration 6.00E-10 M): 16% | Receptor Activation (%) ([2]; Concentration 6.00E-11 M): -6% | EC50 ([2]; IP1 accumulation, CHO cells expressing rat GPR40, mean ± SD, N = 29): 6 ± 2.9 nM | % Activation ([2]; individual experiments (raw data of Table 1)): 118% and 159% and 181% and 151% and 130% and 184% and 179% and 195% and 135% and 146% and 161% and 144% and 191% and 182% and 204% and 258% and 168% and 171% and 187% and 162% and 170% and 165% and 199% and 155% and 137% and 160% and 91% | % Activation ([2]; maximal activation, percentage of the control response of an in-house partial agonist, mean ± SD): 166% and 166 ± 31^1% | Fasted blood glucose [3]: 134 mg/dl (2×) and 126 mg/dl and 92 mg/dl and 108 mg/dl and 125 mg/dl and 107 mg/dl (2×) and 150 mg/dl | binding site on GPR40 [4]: binds to the same site as other GPR40 partial agonists such as AMG837 and TAK-875 | effect on binding of AgoPAM's [4]: augments the binding of AgoPAM’s such as AM1638

From PMC5441580, “GPR40 partial agonist MK-2305 lower fasting glucose in the Goto Kakizaki rat via suppression of endogenous glucose production” (PLoS ONE, 2017)
